Assay type in all cases: cell-based
In test [1] the test system is Streptococcus pyogenes IID692. The test is described as follows: MIC, agar dilution method, Mueller-Hinton agar with 5% defibrinated horse blood. The settings on record: 35° C., 5% CO2, 24 hours. How it is done:
(§1) The following in vitro results were obtained based on an agar dilution method except for C. pneumoniae. The activity is presented as the minimum inhibitory concentration (MIC).
(§2) Streptococci and enterococci were tested on Mueller-Hinton agar supplemented with 5% defibrinated horse blood, using an approximate inoculum of 1×10^4 cfu/spot an incubation temperature of 35° C. in an atmosphere of 5% CO2 for 24 hours. The MIC was defined as the lowest concentration at which no visible bacterial growth was observed.

Test [2] has as its system Streptococcus pneumoniae IID553. The test is described as above. The settings on record: 35° C., 5% CO2, 24 hours. The procedure:
as §1, §2

In test [3] the test system is Enterococcus faecium VRQR (vancomycin resistant, quinolone resistant). The description is as above. The settings on record: 35° C., 5% CO2, 24 hours. How it is done: as §1, §2
Test [4] deals with Streptococcus pneumoniae PRQR (penicillin resistant, quinolone resistant). The description is as above. The settings on record: 35° C., 5% CO2, 24 hours. The procedure:
as §1, §2

Test [5] deals with Staphylococcus aureus Smith. Nature of the test: MIC, agar dilution method, Mueller-Hinton agar. The settings on record: 1×10^4 cfu/spot, 35° C., 24 hours. How it is done:
as §1
(§3) S. aureus and M. catarrhalis were tested on Mueller-Hinton agar, using an approximate inoculum of 1×10^4 cfu/spot an incubation temperature of 35° C. for 24 hours. The MIC was defined as the lowest concentration at which no visible bacterial growth was observed.

For test [6], the system named is Staphylococcus aureus CR (chloramphenicol resistant). Nature of the test: MIC, agar dilution method, Mueller-Hinton agar. The settings on record: 1×10^4 cfu/spot, 35° C., 24 hours. The procedure:
as §1, §3

Test [7] relates to Moraxella catarrhalis ATCC25238. The test is described as follows: MIC, agar dilution method, Mueller-Hinton agar. The settings on record: 1×10^4 cfu/spot, 35° C., 24 hours. How it is done: as §1, §3
Test [8] deals with Staphylococcus aureus MR (methicillin resistant). Nature of the test: MIC, agar dilution method, Mueller-Hinton agar. The settings on record: 1×10^4 cfu/spot, 35° C., 24 hours. The procedure: as §1, §3

The source of these data is patent US20060247286A1, “Oxazolidinone antibiotics and derivatives thereof” (priority 2003, published 2006).

Values after ≈ are worked out from the molar mass of the structure shown.

Take `CC(=O)NC[C@H]1CN(c2ccc([C@@]3(C#N)[C@@H]4CN(C(=O)CO)C[C@@H]43)cc2)C(=O)O1` [Example 8, N-[5(S)-3-[4-[(1α,5α,6β)-(6-Cyano-3-hydroxyacetyl-3-azabicyclo[3.1.0]hexan-6-yl)]phenyl]-2-oxooxazolidin-5-ylmethyl]acetamide]: the minimum inhibitory concentration (MIC) stood at 0.5 µg/mL (≈ 1.25 µM) in test [1]; 0.5 µg/mL (≈ 1.25 µM) in test [2]; 0.5 µg/mL (≈ 1.25 µM) in test [3]; 0.5 µg/mL (≈ 1.25 µM) in test [4]; 1 µg/mL (≈ 2.51 µM) in test [5]; 2 µg/mL (≈ 5.02 µM) in test [6]. In addition, the minimal inhibitory concentration (MIC) in test [7] was found to be 2 µg/mL (≈ 5.02 µM); in test [8], 1 µg/mL (≈ 2.51 µM).

Consider `CC(=O)NC[C@H]1CN(c2ccc([C@@]3(C#N)[C@@H]4CN(C#N)C[C@@H]43)cc2)C(=O)O1` [Example 11, N-[5(S)-3-[4-[(1α,5α,6β)-(3,6-Dicyano-3-azabicyclo[3.1.0]hexan-6-yl)]phenyl]-2-oxooxazolidin-5-ylmethyl]acetamide], for which the MIC in test [1] came to 0.125 µg/mL (≈ 0.342 µM); in test [2], 0.25 µg/mL (≈ 0.684 µM); in test [3], 0.25 µg/mL (≈ 0.684 µM); in test [4] it was 0.25 µg/mL (≈ 0.684 µM); in test [5], 0.25 µg/mL (≈ 0.684 µM); in test [6], 1 µg/mL (≈ 2.74 µM). For the same molecule, the MIC in test [7] worked out at 1 µg/mL (≈ 2.74 µM); in test [8], 0.5 µg/mL (≈ 1.37 µM).

Regarding `CC(=O)NC[C@H]1CN(c2ccc([C@@]3(C#N)[C@@H]4CN(S(C)(=O)=O)C[C@@H]43)cc2)C(=O)O1` [Example 9, N-[5(S)-3-[4-[(1α,5α,6β)-(6-Cyano-3-methanesulfonyl-3-azabicyclo[3.1.0]hexan-6-yl)]phenyl]-2-oxooxazolidin-5-ylmethyl]acetamide], the MIC in test [1] came to 0.5 µg/mL (≈ 1.19 µM); in test [2], 0.5 µg/mL (≈ 1.19 µM); in test [3], 0.5 µg/mL (≈ 1.19 µM); in test [4], 0.5 µg/mL (≈ 1.19 µM); in test [5], 0.5 µg/mL (≈ 1.19 µM); in test [6], 1 µg/mL (≈ 2.39 µM). For the same molecule, the MIC came to 2 µg/mL (≈ 4.78 µM) in test [7] and 0.5 µg/mL (≈ 1.19 µM) in test [8].

Take `CC(=O)NC[C@H]1CN(c2ccc(N3CCOCC3)c(F)c2)C(=O)O1` [Linezolid, reference compound]: the MIC in test [1] stood at 1 µg/mL (≈ 2.96 µM); in test [2], 2 µg/mL (≈ 5.93 µM); in test [3], 2 µg/mL (≈ 5.93 µM); in test [4], 1 µg/mL (≈ 2.96 µM); in test [5], 1 µg/mL (≈ 2.96 µM); in test [6], 16 µg/mL (≈ 47.4 µM). Besides, the MIC is 4 µg/mL (≈ 11.9 µM) in test [7] and 1 µg/mL (≈ 2.96 µM) in test [8].

As for `CC(=O)NC[C@H]1CN(c2ccc([C@@]3(C#N)[C@@H]4CCC[C@@H]43)cc2)C(=O)O1` [Example 1, N-[5(S)-3-[4-[(1α,5α,6β)-(6-Cyanobicyclo[3.1.0]hexan-6-yl)]phenyl]-2-oxooxazolidin-5-ylmethyl]acetamide], the minimum inhibitory concentration (MIC) in test [1] is 0.5 µg/mL (≈ 1.47 µM); in test [2], 0.5 µg/mL (≈ 1.47 µM); in test [3], 0.25 µg/mL (≈ 0.737 µM); in test [4], 0.25 µg/mL (≈ 0.737 µM); in test [5], 0.25 µg/mL (≈ 0.737 µM); in test [6] it was 2 µg/mL (≈ 5.89 µM). Also, the minimum inhibitory concentration (MIC) in test [7] was determined as 0.5 µg/mL (≈ 1.47 µM); in test [8], 0.25 µg/mL (≈ 0.737 µM).
